Like-named read-outs stand apart in the source and are kept apart here.

Common to all, as to type: biochemical
For assay [1], the target named is 320 wild-type protein kinases (Homo sapiens, UniProt O43293). The note with it: singlicate. The text has this:
(§1) Table S4. Profiling of two compounds at two concentrations against 320 wild-type protein kinases; singlicate measurement; Residual activities (% of control).

The target of assay [2] is 320 wild-type protein kinases (Homo sapiens, UniProt P05129). Conditions: PKC-gamma, singlicate.
Source text: as §1

Assay [3] addresses 320 wild-type protein kinases (Homo sapiens, UniProt P16234). Conditions: PDGFR-alpha, singlicate.
Source text: as §1

Assay [4] concerns the target 320 wild-type protein kinases (Homo sapiens, UniProt P23458). Conditions: JAK1 aa583-1154 wt, singlicate.
Source text: as §1

Assay [5] has as its target 320 wild-type protein kinases (Homo sapiens, UniProt P49840). The note with it: GSK3-alpha, singlicate.
Source text: as §1

Assay [6] has as its target 320 wild-type protein kinases (Homo sapiens, UniProt P78368). Conditions: singlicate.
Source text: as §1

The target in assay [7] is T1, 320 wild-type protein kinases (Homo sapiens, UniProt Q13163).
T1 sequence (Q13163 1-448): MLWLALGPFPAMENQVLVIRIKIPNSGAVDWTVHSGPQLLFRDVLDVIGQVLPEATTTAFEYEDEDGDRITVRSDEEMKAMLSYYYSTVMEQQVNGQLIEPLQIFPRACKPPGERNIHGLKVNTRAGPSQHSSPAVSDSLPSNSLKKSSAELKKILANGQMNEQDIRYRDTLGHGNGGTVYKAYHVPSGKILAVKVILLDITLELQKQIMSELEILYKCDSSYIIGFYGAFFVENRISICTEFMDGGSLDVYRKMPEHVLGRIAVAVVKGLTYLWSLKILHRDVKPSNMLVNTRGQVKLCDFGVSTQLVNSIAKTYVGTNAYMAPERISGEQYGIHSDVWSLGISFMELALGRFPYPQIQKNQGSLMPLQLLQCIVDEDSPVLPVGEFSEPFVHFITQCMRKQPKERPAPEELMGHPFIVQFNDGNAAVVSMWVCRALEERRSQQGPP
Conditions: singlicate.
Source text: as §1

Assay [8] concerns the target T2, 320 wild-type protein kinases (Homo sapiens, UniProt Q15139).
T2 sequence (Q15139 1-912): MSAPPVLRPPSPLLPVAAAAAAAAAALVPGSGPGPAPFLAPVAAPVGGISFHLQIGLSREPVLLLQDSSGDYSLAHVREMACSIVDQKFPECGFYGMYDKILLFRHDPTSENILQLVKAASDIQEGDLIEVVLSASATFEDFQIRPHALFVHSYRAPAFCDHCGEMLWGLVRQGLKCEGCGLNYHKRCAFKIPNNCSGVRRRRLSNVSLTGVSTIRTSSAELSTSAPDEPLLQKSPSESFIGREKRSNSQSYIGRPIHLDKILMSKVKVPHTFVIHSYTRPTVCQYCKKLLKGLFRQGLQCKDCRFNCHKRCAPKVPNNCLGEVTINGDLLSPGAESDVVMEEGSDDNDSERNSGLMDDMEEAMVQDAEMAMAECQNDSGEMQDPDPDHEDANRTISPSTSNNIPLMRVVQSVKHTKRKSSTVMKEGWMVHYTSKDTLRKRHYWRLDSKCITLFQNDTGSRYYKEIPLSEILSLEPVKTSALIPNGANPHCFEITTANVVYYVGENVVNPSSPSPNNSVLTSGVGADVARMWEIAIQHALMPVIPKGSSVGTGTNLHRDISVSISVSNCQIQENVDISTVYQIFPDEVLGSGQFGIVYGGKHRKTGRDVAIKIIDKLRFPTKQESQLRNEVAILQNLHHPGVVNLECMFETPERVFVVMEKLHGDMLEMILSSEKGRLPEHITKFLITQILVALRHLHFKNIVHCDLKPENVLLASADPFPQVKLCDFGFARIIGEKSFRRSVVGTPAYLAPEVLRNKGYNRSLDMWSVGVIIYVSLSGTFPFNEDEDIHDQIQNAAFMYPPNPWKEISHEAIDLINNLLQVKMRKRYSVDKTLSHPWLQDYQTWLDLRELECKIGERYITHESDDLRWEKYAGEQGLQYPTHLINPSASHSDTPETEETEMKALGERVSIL
The note with it: PKC-mu, singlicate.
Source text: as §1

Assay [9] addresses 320 wild-type protein kinases (Homo sapiens, UniProt Q86UE8). The note with it: kinase TLK2, singlicate.
Source text: as §1

Assay [10] concerns the target 320 wild-type protein kinases (Homo sapiens, UniProt Q96SB4). The note with it: kinase SRPK1, singlicate.
Source text: as §1

Assay [11] deals with 320 wild-type protein kinases (Homo sapiens, UniProt Q9UIK4). Conditions: singlicate.
Source text: as §1

Chain of 320 wild-type protein kinases (Homo sapiens, UniProt Q96SB4) (Q96SB4 whole entry): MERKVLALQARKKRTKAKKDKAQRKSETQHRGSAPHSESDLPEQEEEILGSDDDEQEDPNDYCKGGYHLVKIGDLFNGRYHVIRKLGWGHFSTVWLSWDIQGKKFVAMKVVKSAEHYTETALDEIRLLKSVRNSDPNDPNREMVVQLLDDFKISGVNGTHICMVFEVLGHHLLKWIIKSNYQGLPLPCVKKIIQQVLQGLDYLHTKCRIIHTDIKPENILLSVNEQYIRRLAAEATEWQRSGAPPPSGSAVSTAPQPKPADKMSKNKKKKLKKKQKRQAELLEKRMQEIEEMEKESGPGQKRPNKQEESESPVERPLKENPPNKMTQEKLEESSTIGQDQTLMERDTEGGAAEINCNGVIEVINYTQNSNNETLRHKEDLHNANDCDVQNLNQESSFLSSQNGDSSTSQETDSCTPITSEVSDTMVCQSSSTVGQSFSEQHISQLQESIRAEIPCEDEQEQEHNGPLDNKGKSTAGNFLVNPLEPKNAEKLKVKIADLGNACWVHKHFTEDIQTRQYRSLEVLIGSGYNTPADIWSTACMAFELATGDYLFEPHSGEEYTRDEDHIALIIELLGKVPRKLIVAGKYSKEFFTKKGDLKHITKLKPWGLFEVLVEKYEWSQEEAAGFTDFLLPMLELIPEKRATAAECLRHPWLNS
Chain of 320 wild-type protein kinases (Homo sapiens, UniProt Q9UIK4) (Q9UIK4 whole entry): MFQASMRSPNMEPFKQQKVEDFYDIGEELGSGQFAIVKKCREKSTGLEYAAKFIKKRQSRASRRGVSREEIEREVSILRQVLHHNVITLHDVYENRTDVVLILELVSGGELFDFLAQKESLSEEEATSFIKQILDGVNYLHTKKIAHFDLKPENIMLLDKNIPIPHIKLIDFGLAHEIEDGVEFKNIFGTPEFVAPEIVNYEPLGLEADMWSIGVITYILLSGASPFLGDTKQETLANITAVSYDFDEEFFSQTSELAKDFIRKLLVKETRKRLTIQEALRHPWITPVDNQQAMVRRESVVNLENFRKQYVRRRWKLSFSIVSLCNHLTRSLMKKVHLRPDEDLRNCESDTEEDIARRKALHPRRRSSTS
Chain of 320 wild-type protein kinases (Homo sapiens, UniProt Q86UE8) (Q86UE8 whole entry): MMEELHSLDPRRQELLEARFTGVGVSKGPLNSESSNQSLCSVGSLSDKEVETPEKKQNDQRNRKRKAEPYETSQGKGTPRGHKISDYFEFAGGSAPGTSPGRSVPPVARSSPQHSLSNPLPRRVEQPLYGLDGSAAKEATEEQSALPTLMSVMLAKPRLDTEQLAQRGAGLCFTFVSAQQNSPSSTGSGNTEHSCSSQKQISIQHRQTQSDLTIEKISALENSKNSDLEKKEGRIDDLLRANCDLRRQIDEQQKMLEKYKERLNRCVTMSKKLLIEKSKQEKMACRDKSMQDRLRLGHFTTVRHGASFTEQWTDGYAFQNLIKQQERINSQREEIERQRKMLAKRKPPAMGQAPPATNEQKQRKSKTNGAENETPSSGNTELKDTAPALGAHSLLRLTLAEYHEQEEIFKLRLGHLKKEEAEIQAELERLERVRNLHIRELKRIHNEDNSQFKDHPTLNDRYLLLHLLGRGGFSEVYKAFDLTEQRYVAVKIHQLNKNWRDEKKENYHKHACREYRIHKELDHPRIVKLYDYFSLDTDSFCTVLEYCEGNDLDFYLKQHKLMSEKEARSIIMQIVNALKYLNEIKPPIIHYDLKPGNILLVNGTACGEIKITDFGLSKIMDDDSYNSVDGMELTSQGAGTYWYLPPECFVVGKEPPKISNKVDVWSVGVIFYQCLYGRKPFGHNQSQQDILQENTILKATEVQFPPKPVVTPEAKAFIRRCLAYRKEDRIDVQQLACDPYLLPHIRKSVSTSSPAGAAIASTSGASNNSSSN
Chain of 320 wild-type protein kinases (Homo sapiens, UniProt P49840) (P49840 whole entry): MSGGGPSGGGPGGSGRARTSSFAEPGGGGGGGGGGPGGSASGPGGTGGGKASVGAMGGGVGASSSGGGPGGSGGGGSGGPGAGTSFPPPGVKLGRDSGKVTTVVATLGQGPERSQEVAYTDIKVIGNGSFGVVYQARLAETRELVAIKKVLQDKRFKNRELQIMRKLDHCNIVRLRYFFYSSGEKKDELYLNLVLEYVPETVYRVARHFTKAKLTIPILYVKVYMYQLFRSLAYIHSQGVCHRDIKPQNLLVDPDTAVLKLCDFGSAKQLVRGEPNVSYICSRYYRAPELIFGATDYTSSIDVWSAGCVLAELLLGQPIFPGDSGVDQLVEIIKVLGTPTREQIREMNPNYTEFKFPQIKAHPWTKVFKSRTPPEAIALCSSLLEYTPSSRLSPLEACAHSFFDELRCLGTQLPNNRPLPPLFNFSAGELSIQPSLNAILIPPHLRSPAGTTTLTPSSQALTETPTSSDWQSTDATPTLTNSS
Chain of 320 wild-type protein kinases (Homo sapiens, UniProt P16234) (P16234 24-1089): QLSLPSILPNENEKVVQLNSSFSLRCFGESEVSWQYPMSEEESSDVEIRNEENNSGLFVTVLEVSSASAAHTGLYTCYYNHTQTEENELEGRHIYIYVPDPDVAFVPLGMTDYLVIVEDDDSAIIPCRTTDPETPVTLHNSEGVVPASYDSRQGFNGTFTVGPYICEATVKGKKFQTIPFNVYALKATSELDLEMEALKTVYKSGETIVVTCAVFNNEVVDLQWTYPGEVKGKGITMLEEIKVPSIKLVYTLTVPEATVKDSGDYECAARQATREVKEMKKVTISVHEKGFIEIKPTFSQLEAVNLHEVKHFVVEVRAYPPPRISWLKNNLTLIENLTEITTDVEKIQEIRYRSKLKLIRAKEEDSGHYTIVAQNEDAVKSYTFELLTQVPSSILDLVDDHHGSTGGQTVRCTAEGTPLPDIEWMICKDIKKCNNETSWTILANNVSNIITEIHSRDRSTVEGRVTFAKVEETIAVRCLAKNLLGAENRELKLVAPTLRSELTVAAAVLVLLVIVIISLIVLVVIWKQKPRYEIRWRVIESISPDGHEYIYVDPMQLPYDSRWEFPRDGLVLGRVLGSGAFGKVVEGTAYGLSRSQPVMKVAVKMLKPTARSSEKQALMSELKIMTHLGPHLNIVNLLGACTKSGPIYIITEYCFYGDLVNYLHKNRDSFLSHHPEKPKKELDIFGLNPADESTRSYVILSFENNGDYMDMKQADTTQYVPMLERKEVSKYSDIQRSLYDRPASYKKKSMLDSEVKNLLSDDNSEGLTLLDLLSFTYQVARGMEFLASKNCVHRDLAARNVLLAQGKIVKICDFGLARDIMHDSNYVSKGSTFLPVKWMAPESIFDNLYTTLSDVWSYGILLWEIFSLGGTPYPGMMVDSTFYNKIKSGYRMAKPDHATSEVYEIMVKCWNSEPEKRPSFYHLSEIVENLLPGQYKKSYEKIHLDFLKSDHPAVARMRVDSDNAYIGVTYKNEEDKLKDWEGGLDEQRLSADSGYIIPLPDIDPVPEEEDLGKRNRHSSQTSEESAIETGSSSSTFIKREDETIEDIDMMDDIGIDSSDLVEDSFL
Chain of 320 wild-type protein kinases (Homo sapiens, UniProt P78368) (P78368 whole entry): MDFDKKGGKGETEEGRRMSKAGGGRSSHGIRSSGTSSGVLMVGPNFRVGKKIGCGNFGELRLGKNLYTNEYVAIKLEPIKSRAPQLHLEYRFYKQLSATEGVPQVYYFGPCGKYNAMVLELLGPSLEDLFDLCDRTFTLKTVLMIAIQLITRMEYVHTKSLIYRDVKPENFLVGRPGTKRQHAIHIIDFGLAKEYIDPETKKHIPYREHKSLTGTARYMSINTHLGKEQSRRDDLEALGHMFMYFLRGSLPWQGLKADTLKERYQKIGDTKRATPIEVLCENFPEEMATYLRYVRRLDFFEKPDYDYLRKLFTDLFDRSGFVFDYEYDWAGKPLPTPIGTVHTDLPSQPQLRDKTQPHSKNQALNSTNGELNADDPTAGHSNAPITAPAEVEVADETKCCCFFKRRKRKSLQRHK
Chain of 320 wild-type protein kinases (Homo sapiens, UniProt O43293) (O43293 whole entry): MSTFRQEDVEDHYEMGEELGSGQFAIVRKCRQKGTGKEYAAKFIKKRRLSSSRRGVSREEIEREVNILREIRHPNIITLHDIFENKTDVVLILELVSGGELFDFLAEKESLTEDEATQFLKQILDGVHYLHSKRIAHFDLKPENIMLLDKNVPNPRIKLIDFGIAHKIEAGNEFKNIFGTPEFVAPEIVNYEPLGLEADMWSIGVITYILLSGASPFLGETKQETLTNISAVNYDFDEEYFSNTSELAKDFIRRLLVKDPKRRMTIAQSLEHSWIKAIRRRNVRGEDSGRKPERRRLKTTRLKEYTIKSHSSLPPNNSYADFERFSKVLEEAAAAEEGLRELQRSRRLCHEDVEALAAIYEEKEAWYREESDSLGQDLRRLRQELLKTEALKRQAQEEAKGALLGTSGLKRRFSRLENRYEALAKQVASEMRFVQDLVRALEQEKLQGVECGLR

`C#Cc1cc(Nc2ncnc3cc(I)ccc23)ccc1Cl` [Compound 41]: the Residual activity in assay [1] (DAPK3, 1.0E-06 M) is given as 109 % of control; in assay [1] (DAPK3, 1.0E-07 M), 110 % of control; in assay [2] (1.0E-06 M), 89 % of control; in [2] (1.0E-07 M), 99 % of control; in assay [3] (1.0E-06 M) it was 117 % of control; in assay [3] (1.0E-07 M), 118 % of control. Besides, the Residual activity in assay [4] (1.0E-06 M) is recorded as 90 % of control; in [4] (1.0E-07 M) it was 98 % of control; in assay [5] (1.0E-06 M), 143 % of control; in assay [5] (1.0E-07 M), 148 % of control; in assay [6] (CK1-gamma2, 1.0E-06 M) it was 112 % of control; in assay [6] (CK1-gamma2, 1.0E-07 M), 119 % of control. The Residual activity in assay [7] (MEK5, 1.0E-06 M) is 100 % of control; in assay [7] (MEK5, 1.0E-07 M), 103 % of control; in assay [8] (1.0E-06 M), 89 % of control; in assay [8] (1.0E-07 M), 111 % of control; in [11] (DAPK2, 1.0E-06 M) it was 118 % of control; in [11] (DAPK2, 1.0E-07 M), 113 % of control. For the same compound, the “Residual activity, TLK2” value in assay [9] (assay conc. 1.0E-06 M) is given as 109 % of control; in assay [9] (assay conc. 1.0E-07 M) it was 117 % of control. Also, the “Residual activity, SRPK1” value in assay [10] (assay conc. 1.0E-06 M) is on record as 89 % of control; in [10] (assay conc. 1.0E-07 M), 96 % of control.

`C#Cc1cc(Nc2ncnc3cc(OC)c(OC)cc23)ccc1Cl` [Compound 45]: the Residual activity in assay [1] (DAPK3, 1.0E-06 M) was 114 % of control; in [1] (DAPK3, 1.0E-07 M), 112 % of control; in assay [2] (1.0E-06 M) it was 88 % of control; in assay [2] (1.0E-07 M), 87 % of control; in [3] (1.0E-06 M), 95 % of control; in assay [3] (1.0E-07 M), 105 % of control. Moreover, the Residual activity was 102 % of control in assay [4] (1.0E-06 M); 111 % of control in assay [4] (1.0E-07 M); 122 % of control in [5] (1.0E-06 M); 136 % of control in assay [5] (1.0E-07 M); 109 % of control in [6] (CK1-gamma2, 1.0E-06 M); 111 % of control in [6] (CK1-gamma2, 1.0E-07 M). For the same compound, the Residual activity was 108 % of control in assay [7] (MEK5, 1.0E-06 M); 107 % of control in [7] (MEK5, 1.0E-07 M); 73 % of control in assay [8] (1.0E-06 M); 92 % of control in assay [8] (1.0E-07 M); 101 % of control in [11] (DAPK2, 1.0E-06 M); 132 % of control in assay [11] (DAPK2, 1.0E-07 M). In addition, the “Residual activity, TLK2” value in [9] (assay conc. 1.0E-06 M) is recorded as 103 % of control; in assay [9] (assay conc. 1.0E-07 M), 111 % of control. In addition, the “Residual activity, SRPK1” value in assay [10] (assay conc. 1.0E-06 M) is on record as 97 % of control; in [10] (assay conc. 1.0E-07 M), 100 % of control.

The values above are taken from paper PMC9329436, “Optimization of the 4-anilinoquin(az)oline scaffold as epidermal growth factor receptor (EGFR) inhibitors for chordoma utilizing a toxicology profiling assay platform” (Scientific Reports, 2022).
